According to patent US9873883B2, “Glyphosate resistant plants and associated methods” (Dow AgroSciences LLC, priority 2012, dated 2018):

Experiments:
[1] = test system: T4 Arabidopsis plants containing dgt-14 spiked into wildtype; assay: dgt-14 as a selectable marker with glyphosate selection; type: in vivo, Arabidopsis thaliana; details: applied 7 and 11 DAP, scored 17 DAP
Experimental: The use of dgt-14 as a selectable marker for glyphosate selection agent is tested with the Arabidopsis transformed plants described above. Approximately 50 T4 generation Arabidopsis seed (homozygous for dgt-14) are spiked into approximately 5,000 wildtype (sensitive to glyphosate) seed. The seeds are germinated and plantlets are sprayed with a selecting dose of glyphosate. Several treatments of glyphosate are compared; each tray of plants receives either one or two application timings of glyphosate in one of the following treatment schemes: 7 DAP (days after planting), 11 DAP, or 7 followed by 11 DAP. Since all plants also contain a glufosinate resistance gene in the same transformation vector, dgt-14 containing plants selected with glyphosate can be directly compared to DSM-2 or pat containing control plants selected with glufosinate.
Glyphosate treatments are applied with a DeVilbiss spray tip as previously described. Transgenic plants containing dgt-14 are identified as “resistant” or “sensitive” 17 DAP. […] Sensitive and resistant plants are counted and the number of glyphosate tolerant plants is found to correlate with the original number of transgenic seed containing the dgt-14 transgene which are planted.

[2] = target: T1, Mariprofundus ferrooxydans EPSP synthase DGT-14 v1, native wild type (GENBANK ZP_01452683; SEQ ID NO:17) (Mariprofundus ferrooxydans, UniProt Q0EYT4); assay: In vitro kinetic assay (inorganic phosphate production, malachite green); type: biochemical; details: IC50 (glyphosate)
T1 construct: pET28, N-terminal 6xHis and thrombin site, E. coli, IMAC purified
Experimental: One enzyme that was identified was DGT-14 (GENBANK ACC NO: ZP_01452683) from Manprofundus ferrooxydans. […] One of these enzymes, DGT-11 (SEQ ID NO:5), contains a natural alanine at an analogous position within the EPSP synthase enzyme as that of the G96A mutation which was introduced into the E. coli version of the enzyme.
Site directed mutagenesis was carried out on the synthetic dgt-14 v6 to confirm the role of the alanine that was introduced at the glycine residue of amino acid residue 101. THE QUICK CHANGE II® kit from Stratagene (Santa Clara, Calif.) was used to perform the mutagenesis. The following primers were designed to make the amino acid switch. […]
Cell pellets from 1 L cultures were resuspended in 20-30 mL Buffer A (50 mM HEPES pH 7.5, 150 mM KCl, 2 mM DTT, 1 mM EDTA, 20 mM imidazole, and 5% glycerol). […] Samples were typically diluted 1:50 and the UV-visible spectrum was recorded from 240-700 nm on a Cary50 Bio UV-visible spectrophotometer. A theoretical extinction coefficient was then used to calculate the protein concentration based on the absorbance at 280 nm (ExPASy, Geneva, Switzerland).
The enzyme activities of wild-type (WT) and mutant DGTs were measured by inorganic phosphate (Pi) production in a modified procedure described by Lanzetta et al., (1979). […]

With O=C(O)CNCP(=O)(O)O [glyphosate, N-(phosphonomethyl)glycine] the “effective selection for transgenic plants” value [1] was 26.25-1680 g ae/ha, the IC50 ([2]; at 60 μM PEP) was 440 µM and the IC50 ([2]; at 1 mM PEP) was over 20200 µM.
